According to publication PMC9697349, “Mouse Pharmacokinetics and In Vitro Metabolism of SH-11037 and SH-11008, Synthetic Homoisoflavonoids for Retinal Neovascularization” (Pharmaceutics, 2022):

Legend:
[1] = Metabolic stability of SH-11008 in human liver S9 fractions; format: in vitro ADME
Procedure: (§1) For studies using NADPH or PAPS as a cofactor, 4 μL of SH-11008 (40 μM) solution in 40 vol% CH3CN were mixed with 40 μL of 4 mg protein/mL HLS9 or MLS9 fractions diluted in 0.1 M potassium phosphate buffer (pH 7.4) and 100 μL of 0.1 M potassium phosphate buffer (pH 7.4). When using UDPGA as a cofactor, 32 μL of UGT Reaction Mix Solution B and 68 μL of de-ionized water were used instead of 100 μL of 0.1 M potassium phosphate buffer (pH 7.4). The mixture was warmed at 37 °C for 5 min. The reaction was then initiated by adding 16 μL of 10 mM cofactor dissolved in de-ionized water. The assay condition for UDPGA was used for metabolic stability studies conducted with a mixture of the three cofactors. The reaction was terminated at selected times by adding 160 μL of ice-cold CH3CN containing glipizide (500 ng/mL) as the IS. The resulting mixture was vortexed, sonicated, and centrifuged at 3000× g for 20 min. Aliquots of the supernatant were subjected to LC-MS/MS analysis described below in Section 2.6.2.
(§2) The LC-MS/MS system consisted of Agilent 1290 Infinity HPLC system and Agilent 6530 Accurate-Mass Quadrupole Time-of-Flight (Q-TOF) mass spectrometer equipped with dual AJS ESI ion source (Agilent Technologies Korea, Seoul, Korea). Chromatographic separation was performed on an Agilent Eclipse Plus C18 column (2.1 × 100 mm, 3.5 μm) with a Phenomenex Security Guard C18 guard column (4 × 20 mm) maintained at 40 °C. The mobile phase consisted of 0.1% formic acid in deionized water (A) and 0.1% formic acid in CH3CN (B): 0~2 min 5% B, 2~7 min to 95% B, and 7~10 min 95% B. Total run time including a 5 min equilibration time was 15 min. The flow rate was 0.4 mL/min. The injection volume was 5 µL. The mass spectrometer was operated in a positive Auto MS/MS scan mode with a full scan mass range of m/z 100–1000, fragmentor voltage 150 V, and CE 30 eV, selecting the two most intense precursor ions for collision-induced dissociation. Putative metabolites were identified using Agilent Mass Hunter Metabolite ID software (ver.B.04.00) followed by manual interpretation of the spectral data. Chromatograms and mass spectra were extracted using Agilent Mass Hunter Qualitative Analysis software (ver. B.05.00).
(§3) Pharmacokinetic parameters were calculated by noncompartmental analysis of plasma concentration versus time profiles using PKSolver. The scaling factors of mice and human, half-life (t1/2), intrinsic clearance (CLint), hepatic clearance (CLH), and hepatic extraction ratio (EH) were from the in vitro studies as described previously. […] The fraction of parent drug converted to the metabolite (fm) was calculated as follows:fm (%) = (AUC(m) × CL(m))/D × MWparent/MWmetabolite × 100,(1) where D is dose of the parent drug, AUC(m) is area under the curve for the metabolite after a dose of parent drug, CL(m) is CL of metabolite, and MW is molecular weight.

[2] = test system: human microvascular retinal endothelial cell proliferation; parameters: method as in PMID 26035340; settings: less potent than SH-11037; cited from earlier work
[3] = Metabolic stability of SH-11008 in mouse liver S9 fractions; format: in vitro ADME
Procedure: as §1, §2, §3

[4] = Stability of SH-11037 in 0.1 M phosphate buffer (pH 7.4); format: physicochemical
Procedure: (§4) SH-11037 (1 μM) was incubated in triplicate in 0.1 M phosphate buffer (pH 7.4) or in mouse, dog, and human plasma to investigate its stability. SH-11037 (40 μM) in 50 vol% aqueous CH3CN was mixed with 0.1 M phosphate buffer (pH 7.4) or plasma diluted 3-fold with 0.1 M phosphate buffer (pH 7.4) to a final volume of 160 μL and a final concentration of 1 μM. The resulting solutions were then incubated at 37 °C in a shaking water bath. The incubations were terminated at selected times by adding 160 µL of ice-cold CH3CN containing glipizide (500 ng/mL) as the internal standard (IS). The resulting mixture was vortexed, sonicated, and centrifuged at 3000× g for 20 min. Aliquots of the supernatant were subjected to LC-MS/MS analysis described below in Section 2.6.2.
(§5) The LC-MS/MS system consisted of Agilent 1290 Infinity HPLC system and Agilent 6530 Accurate-Mass Quadrupole Time-of-Flight (Q-TOF) mass spectrometer equipped with dual AJS ESI ion source (Agilent Technologies Korea, Seoul, Korea). Chromatographic separation was performed on an Agilent Eclipse Plus C18 column (2.1 × 100 mm, 3.5 μm) with a Phenomenex Security Guard C18 guard column (4 × 20 mm) maintained at 40 °C. The mobile phase consisted of 0.1% formic acid in deionized water (A) and 0.1% formic acid in CH3CN (B): 0~2 min 5% B, 2~7 min to 95% B, and 7~10 min 95% B. Total run time including a 5 min equilibration time was 15 min. […]

[5] = Stability of SH-11037 in mouse plasma; format: in vitro ADME; settings: ICR, pH 7.4, SH-11037 1 µM, 37 °C, read-out: half-life (t1/2) of hydrolysis to SH-11008
Procedure: as §4, §5

[6] = Stability of SH-11037 in human plasma; format: in vitro ADME; settings: pH 7.4, SH-11037 1 µM, 37 °C, read-out: half-life (t1/2) of hydrolysis to SH-11008
Procedure: as §4, §5

| Structure (SMILES) | metabolic stability in the presence of NADPH ([1]; HLS9, NADPH 1 mM only, 30 min) | half-life at 1 µM ([1]; human, liver S9 fractions, SH-11008 1 µM, HLS9 1 mg protein/mL, mixture of NADPH, UDPGA and PAPS (1 mM), 37 °C) [min] | EH ([1]; human, predicted hepatic extraction ratio from HLS9 data) | CLH ([1]; human, predicted with the well-stirred model from HLS9 data) [mL/min/kg] | CLint scaled at 1 µM ([1]; liver S9 fractions, human, scaled from in vitro t1/2 in HLS9) [mL/min/kg] | inhibitory activity on cell proliferation [2] | CLint scaled at 1 µM ([3]; CD-1, liver S9 fractions, pH 7.4, mouse, scaled from in vitro t1/2 in MLS9) [mL/min/kg] | half-life at 1 µM ([3]; CD-1, mouse, liver S9 fractions, SH-11008 1 µM, MLS9 1 mg protein/mL, mixture of NADPH, UDPGA and PAPS (1 mM), 37 °C) [min] | metabolic stability with cofactor added individually ([3]; MLS9, NADPH, UDPGA or PAPS 1 mM individually, 30 min) | EH ([3]; mouse, predicted hepatic extraction ratio from MLS9 data) | CLH ([3]; mouse, predicted with the well-stirred model from MLS9 data) [mL/min/kg] | SH-11037 remaining ([4]; 1 µM, 0.1 M phosphate buffer pH 7.4, 1 h incubation at 37 °C) [%] | SH-11008 formation in buffer ([4]; SH-11037 1 µM, pH 7.4 buffer, 1 h at 37 °C) | half-life at 1 µM [5] [min] | half-life at 1 µM [6] [min] |
| --- | --- | --- | --- | --- | --- | --- | --- | --- | --- | --- | --- | --- | --- | --- | --- |
| COc1ccc(CC2COc3cc(OC)c(OC)c(OC)c3C2=O)cc1O (stereo not drawn) [SH-11008] | stable | 0.6 | 0.99 | 19.9 | 3580 | good inhibitory activity | 1510 | 5.7 | metabolized rapidly | 0.94 | 84.9 |  |  |  |  |
| COc1ccc(CC2COc3cc(OC)c(OC)c(OC)c3C2=O)cc1OC(=O)[C@H](Cc1ccccc1)NC(=O)OC(C)(C)C (stereo partly drawn) [SH-11037] |  |  |  |  |  |  |  |  |  |  |  | ~100 | not detected | 0.018 | 73.2 |
